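Briefly, cells in 96-well plates were exposed to five compound concentrations for 48 h, and endpoints were estimated by linear interpolation. Abbreviation: GI50, concentration required for 50% inhibition of growth.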 Active and inactive are the calls of the source. Rule as the data show it: active = GI50 up to about 1.1 µM and inactive = higher.
Experiments:
Assay in all cases: inhibition of tumour cell growth, NCI panel, 48 h
[1] = system: NCI/ADR-RES
[2] = system: SR
[3] = system: HOP-62
[4] = system: M14
[5] = system: SK-MEL-28
[6] = system: MDA-MB-435
[7] = system: K562
[8] = system: OVCAR-3
[9] = system: MDA-N
[10] = system: LOX IMVI
[11] = system: HOP-92
[12] = system: HCT-15
[13] = system: CCRF-CEM
[14] = system: HCT-116
[15] = system: Hs-578T
[16] = system: HT-29
[17] = system: SK-OV-3
[18] = system: OVCAR-8
[19] = system: UO-31
[20] = system: A498

SMILES | GI50 [1] | GI50 [2] | GI50 [3] | GI50 [4] | GI50 [5] | GI50 [6] | GI50 [7] | GI50 [8] | GI50 [9] | GI50 [10] | GI50 [11] | GI50 [12] | GI50 [13] | GI50 [14] | GI50 [15] | GI50 [16] | GI50 [17] | GI50 [18] | GI50 [19] | GI50 [20]
CC(=O)c1sc2c(c1OC(=O)c1ccc(Cl)cc1Cl)c(=O)n(-c1ccccc1)c(=S)n2-c1ccccc1 | 1.05 µM (active) | 0.501 µM (active) | 1.41 µM (inactive) | 0.303 µM (active) | 0.475 µM (active) | 1 µM (active) | 4.32 µM (inactive) | 4.14 µM (inactive) | 0.741 µM (active) | 0.321 µM (active) | 0.78 µM (active) | 2.18 µM | 0.26 µM (active) | 2.96 µM (inactive) | 0.1 µM (active) | 0.28 µM (active) | 0.3 µM (active) | 0.418 µM (active) | 0.347 µM (active) | 0.286 µM (active)
O=C1C(c2c(O)[nH]c3ccc([N+](=O)[O-])cc23)=Nc2ccccc21 | > 100 µM (inactive) | 30.3 µM (inactive) | 87.5 µM (inactive) | > 100 µM (inactive) | > 100 µM (inactive) | > 100 µM (inactive) | > 100 µM (inactive) | > 100 µM (inactive) | > 100 µM (inactive) | > 100 µM (inactive) | > 100 µM (inactive) | > 100 µM | > 100 µM (inactive) | > 100 µM (inactive) | 56.9 µM (inactive) | > 100 µM (inactive) | > 100 µM (inactive) | > 100 µM (inactive) | > 100 µM (inactive) | 98.2 µM (inactive)
COC(=O)CNC(=O)C(Cc1ccccc1)NC(=O)c1ccc(-c2ccc(Cl)cc2Cl)o1 (stereo not given) | 21.8 µM (inactive) | 14.9 µM (inactive) | 26.8 µM (inactive) | 30.9 µM (inactive) | 43.8 µM (inactive) | 26.9 µM (inactive) | 21.3 µM (inactive) | 22.4 µM (inactive) | 24.8 µM (inactive) | 23.5 µM (inactive) | 12.4 µM (inactive) | 23.3 µM | 10.1 µM (inactive) | 14.8 µM (inactive) | 15.3 µM (inactive) | 14.4 µM (inactive) | 24.9 µM (inactive) | 25.1 µM (inactive) | 52.6 µM (inactive) | 10.7 µM (inactive)
CCN1C(=O)/C(=C2\SC(c3ccccc3)(c3ccccc3)c3ccccc32)SC1=S | > 100 µM (inactive) | 18.6 µM (inactive) | 27.5 µM (inactive) | 93.1 µM (inactive) | 94.2 µM (inactive) | > 100 µM (inactive) | > 100 µM (inactive) | 51.9 µM (inactive) | > 100 µM (inactive) | 38.6 µM (inactive) | 30.5 µM (inactive) | > 100 µM | > 100 µM (inactive) | 47 µM (inactive) | 32.2 µM (inactive) | > 100 µM (inactive) | > 100 µM (inactive) | 75.5 µM (inactive) | > 100 µM (inactive) | 46 µM (inactive)
C/C=C/[C@@H](C(=O)OC)N1C(=O)c2ccccc2[C@H]1O | > 100 µM (inactive) | > 100 µM (inactive) | > 100 µM (inactive) | > 100 µM (inactive) | > 100 µM (inactive) | > 100 µM (inactive) | > 100 µM (inactive) | > 100 µM (inactive) | > 100 µM (inactive) | > 100 µM (inactive) | > 100 µM (inactive) | > 100 µM | > 100 µM (inactive) | > 100 µM (inactive) | > 100 µM (inactive) | > 100 µM (inactive) | > 100 µM (inactive) | > 100 µM (inactive) | > 100 µM (inactive) | > 100 µM (inactive)
COC1=C(NC(C)=O)C(=O)c2nc3n(c2C1=O)CCC3 | 19.5 µM (inactive) | 36.9 µM (inactive) | 20.7 µM (inactive) | 18.2 µM (inactive) | 18.7 µM (inactive) | 3.64 µM (inactive) | 26.7 µM (inactive) | 15.7 µM (inactive) | 2.83 µM (inactive) | 16.1 µM (inactive) | 13.2 µM (inactive) | 23.4 µM | 3.78 µM (inactive) | 15.7 µM (inactive) | 30.8 µM (inactive) | 26.5 µM (inactive) | 41.6 µM (inactive) | 16.7 µM (inactive) | 24.9 µM (inactive) | 23.6 µM (inactive)
COc1ccc2c(c1)C(=O)C1(C2)[C@H](c2ccccc2)C2C(=O)c3cc(OC)ccc3C2[C@H]1c1ccccc1 (stereo not given in full) | > 100 µM (inactive) | > 100 µM (inactive) | > 100 µM (inactive) | > 100 µM (inactive) | > 100 µM (inactive) | > 100 µM (inactive) | > 100 µM (inactive) | > 100 µM (inactive) | > 100 µM (inactive) | > 100 µM (inactive) | > 100 µM (inactive) | > 100 µM | 73.5 µM (inactive) | > 100 µM (inactive) | 74.6 µM (inactive) | > 100 µM (inactive) | > 100 µM (inactive) | > 100 µM (inactive) | > 100 µM (inactive) | > 100 µM (inactive)
Cc1ccc2[nH]c3c(c2c1)C1CCC(C(C)(C)C)CC1C1C(=O)N(c2ccc(Oc4ccccc4)cc2)C(=O)C31 (stereo not given) | 20.5 µM (inactive) | 1.05 µM (active) | 22.4 µM (inactive) | 48.8 µM (inactive) | > 58.7 µM (inactive) | 58.6 µM (inactive) | 8.91 µM (inactive) | 11.5 µM (inactive) | 50 µM (inactive) | 24.2 µM (inactive) | 14.4 µM (inactive) | 56.8 µM | 2.63 µM (inactive) | 18.5 µM (inactive) | 2.81 µM (inactive) | > 79.6 µM (inactive) | 17.7 µM (inactive) | 8.73 µM (inactive) | 41 µM (inactive) | 9.57 µM (inactive)
CCC/C(Cl)=N/OC(=O)Nc1cccc(F)c1 | 6.04 µM (inactive) | 0.453 µM (active) | 16.4 µM (inactive) | 3.94 µM (inactive) | 5.12 µM (inactive) | 11.9 µM (inactive) | 1.08 µM (active) | 2.61 µM (inactive) | 9.46 µM (inactive) | 1.91 µM (inactive) | 1.6 µM (inactive) | 1.85 µM | 0.526 µM (active) | 4.19 µM (inactive) | 9.75 µM (inactive) | 4.91 µM (inactive) | 17.3 µM (inactive) | 16 µM (inactive) | 8.97 µM (inactive) | > 10 µM (inactive)
